Experimental data as given in patent publication US9486507B2, “Pro-coagulant compounds and methods of use thereof” (priority 2011, dated 2016).
Several values for one entry are separate records, joined by “and”; a condition that tells them apart may be missing. Equal values may be shown once.

How the values were obtained:
[1] = tested on: human HemA (severe) whole blood; assay: ROTEM in human HemA whole blood; format: biochemical; details: 30 min pre-incubation
Protocol: Briefly, lyophilized and citrated FVIII deficient human plasma (Siemens) was reconstituted with 1 mL of distilled water, allowed to stand for 20 min at RT and mixed well before use. Alternatively, an aliquot of citrated (non-lyophilized) FVIII deficient human plasma (HRF, George King, Precision Biologics, or real-time donors) was thawed for 10 min in a 37° C. water bath and when needed centrifuged at 2800 g for 5 min at 25° C. FVIII deficient plasma was spiked with lyophilized platelets (Helena Laboratories, final concentration 0.5×10^8 cells/ml) and compounds, FVIII, or both compound and FVIII. Dilutions of compounds of the present disclosure and controls, such as FVIII, were prepared in PBS (—Ca, —Mg). Next, 300 μl of the spiked plasma was transferred to a ROTEM cup already containing 20 μl of StarTEM (concentrated calcium chloride solution) and 20 μl of lipidated TF (American Diagnostica, final concentration 10 fM) or Kaolin (Sigma-Aldrich, final concentration 0.4 μg/ml) and recording was initiated. The cups were maintained at 37° C. during the testing.
The only difference from the above described plasma Rotem is that the experiment is done in human HemA (severe) whole blood. No platelets were added as they are already present the in whole blood.

[2] = target: FIXa (Homo sapiens, UniProt P00740); assay: FXa generation assay with human FIXa; format: biochemical; parameters: purchased Haematologic Technologies; details: for Vmax: class symbols
[3] = tested on: 10% FVIII-deficient human plasma; assay: Modified activated partial thromboplastin time (aPTT*) assay; format: biochemical
Protocol: For the activated Partial Thromboplastin Time (aPTT) assay peptides to be tested were first diluted in 10% FVIII-deficient human plasma. For the aPTT* the peptides were diluted in 10% FVIII-deficient human plasma that contained traces of hFIXa (anywhere between 0 and 8.8 nM hFIXa depending on the assay) in Tris/NaCl/BSA buffer. The peptides were incubated for 10 minutes at room temperature and then assayed for clotting on a Sysmex instrument that recorded the clotting time observed for each sample. The times were compared to those of a standard curve derived from standards with known FVIII activity (U/mL) in order to determine the clotting outcome.

[4] = tested on: FVIII deficient human plasma; assay: Thrombin generation assay (TGA) in FVIII-deficient plasma; format: biochemical; parameters: key to Thrombin Above Baseline (nM): 1-10 nM (1) or 1-29 nM (2) (+); 11-20 nM (1) or 30-59 nM (2) (++); 21-30 nM (1) or 60-90 nM (2) (+++); >30 nM (1) or >90 nM (2) (++++); At or about baseline (−)
[5] = tested on: platelets; assay: Platelet aggregation (aggregometer); format: cell-based; details: compound 5 about 30 μM; compound 22 10 μM and 30 μM
Text: ADP was used as a positive control for platelet aggregation.

[6] = tested on: FVIII deficient human plasma; assay: Rotational thromboelastometry (ROTEM) in FVIII-deficient human plasma; format: biochemical; details: human HemA plasma (HRF)
Protocol: Compounds of the present disclosure were tested by rotational thromboelastometry to evaluate coagulation parameters such as clotting time (CT), α-angle, clot formation time (CFT), maximum clot firmness (MCF). Briefly, lyophilized and citrated FVIII deficient human plasma (Siemens) was reconstituted with 1 mL of distilled water, allowed to stand for 20 min at RT and mixed well before use. Alternatively, an aliquot of citrated (non-lyophilized) FVIII deficient human plasma (HRF, George King, Precision Biologics, or real-time donors) was thawed for 10 min in a 37° C. water bath and when needed centrifuged at 2800 g for 5 min at 25° C. FVIII deficient plasma was spiked with lyophilized platelets (Helena Laboratories, final concentration 0.5×10^8 cells/ml) and compounds, FVIII, or both compound and FVIII. Dilutions of compounds of the present disclosure and controls, such as FVIII, were prepared in PBS (—Ca, —Mg). Next, 300 μl of the spiked plasma was transferred to a ROTEM cup already containing 20 μl of StarTEM (concentrated calcium chloride solution) and 20 μl of lipidated TF (American Diagnostica, final concentration 10 fM) or Kaolin (Sigma-Aldrich, final concentration 0.4 μg/ml) and recording was initiated. The cups were maintained at 37° C. during the testing.

[7] = FXa generation assay, 10 nM hFIXa, 100 nM hFX
[8] = Precision Biologics FVIII-deficient plasma (2), second Baseline (2) series, 2.5 μM
[9] = Precision Biologics FVIII-deficient plasma (2), second Baseline (2) series, 5 μM
[10] = Precision Biologics FVIII-deficient plasma (2), second Baseline (2) series, 10 μM
[11] = Precision Biologics FVIII-deficient plasma (2), second Baseline (2) series, 20 μM
[12] = Precision Biologics FVIII-deficient plasma (2), first Baseline (2) series, 2.5 μM
[13] = Precision Biologics FVIII-deficient plasma (2), first Baseline (2) series, 5 μM
[14] = Precision Biologics FVIII-deficient plasma (2), first Baseline (2) series, 10 μM

Sequence of FIXa (P00740 47-191 limits assumed): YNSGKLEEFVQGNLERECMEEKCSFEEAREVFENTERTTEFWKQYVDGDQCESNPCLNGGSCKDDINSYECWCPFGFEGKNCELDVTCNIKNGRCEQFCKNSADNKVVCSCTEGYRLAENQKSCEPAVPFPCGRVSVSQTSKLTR
Sequence of FIXa (P00740 227-461 limits assumed): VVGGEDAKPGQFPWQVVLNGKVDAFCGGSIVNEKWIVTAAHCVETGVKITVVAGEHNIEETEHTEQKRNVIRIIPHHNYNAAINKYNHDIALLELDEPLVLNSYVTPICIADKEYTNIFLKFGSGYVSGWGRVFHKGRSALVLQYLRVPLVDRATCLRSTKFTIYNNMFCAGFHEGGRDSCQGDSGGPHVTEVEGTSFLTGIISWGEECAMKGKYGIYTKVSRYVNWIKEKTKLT

Substance	Vmax [2, 7]	Thrombin Above Baseline (nM) [4, 8]	Thrombin Above Baseline (nM) [4, 9]	Thrombin Above Baseline (nM) [4, 10]	Thrombin Above Baseline (nM) [4, 12]	Thrombin Above Baseline (nM) [4, 13]	Thrombin Above Baseline (nM) [4, 14]	other results
PRIRTVGPGSRSASGKLTCLASYCWLFWTGIA [Compound 21]	(++++) ((++++)>3)							Clotting time, sec ([1]; 2.5 μM): 1,057 sec and 1,090 sec; α-angle, degrees ([1]; 2.5 μM): 32 degrees; Clotting time ([1]; 5 μM): 930 s; α-angle, degrees ([1]; 5 μM): 32 degrees; Clotting time ([1]; 10 μM): 748 s and 703 s; α-angle, degrees ([1]; 10 μM): 44 degrees and 52 degrees; Clotting time ([1]; 20 μM): 952 s and 625 s; α-angle, degrees ([1]; 20 μM): 42 degrees and 43 degrees
k-MeLeu-TCLASYCWLF [Compound 2]	(++++) ((++++)>3)							Clotting time ([3]; aPTT* with FIXa, 5 μM): 50.3 s; Clotting time, sec ([3]; aPTT* with FIXa, 5 μM): 51.1; sec; Clotting time ([3]; aPTT* with FIXa, 10 μM): 42.2 s; Clotting time, sec ([3]; aPTT* with FIXa, 10 μM): 42.9; sec; Clotting time ([3]; aPTT* with FIXa, 20 μM): 42.3 s; Clotting time, sec ([3]; aPTT* with FIXa, 20 μM): 42.4; sec; Clotting time ([3]; aPTT*, FIXa 1 nM): 91.4 s; Clotting time, sec ([3]; aPTT*, FIXa 1 nM): 86.8; sec; Clotting time ([3]; aPTT*, FIXa 2 nM): 49.6 s; Clotting time, sec ([3]; aPTT*, FIXa 2 nM): 51.3; sec; Clotting time ([3]; aPTT*, FIXa 4 nM): 42.7 s; Clotting time, sec ([3]; aPTT*, FIXa 4 nM): 46.0; sec; Clotting time ([3]; aPTT*, FIXa 8 nM): 37.1 s; Clotting time, sec ([3]; aPTT*, FIXa 8 nM): 34.4; sec; Vmax (mOD/min min) ([2]; PL: No): 3.05 mOD/min min; Vmax (mOD/min min) ([2]; PL: Yes): 4.22 mOD/min min
SRIRTVGPGSRSASGKSTCLASYCWLFWTGIA	(++++) ((++++)>3)	+++ (21-30 nM (1) or 60-90 nM (2) (+++))	++++ (>30 nM (1) or >90 nM (2) (++++))	++++ (>30 nM (1) or >90 nM (2) (++++))				
PRSRTVGPGSRSASGKSTCLASYCWLFWTGIA	(++++) ((++++)>3)	++ (11-20 nM (1) or 30-59 nM (2) (++))	+++ (21-30 nM (1) or 60-90 nM (2) (+++))	++++ (>30 nM (1) or >90 nM (2) (++++))				Thrombin Above Baseline (nM) [4, 11]: ++++ (>30 nM (1) or >90 nM (2) (++++))
SRSRTVSPGSRSASGKSTCLASYCWLFWTGIA	(++++) ((++++)>3)	+++ (21-30 nM (1) or 60-90 nM (2) (+++))	++++ (>30 nM (1) or >90 nM (2) (++++))	++++ (>30 nM (1) or >90 nM (2) (++++))				
PRIRTSGPGSRSASGKLTCLASYCWLFWTGIA	(++++) ((++++)>3)				+ (1-10 nM (1) or 1-29 nM (2) (+))	++ (11-20 nM (1) or 30-59 nM (2) (++))	++ (11-20 nM (1) or 30-59 nM (2) (++))	
SRIRTVSPGSRSASGKSTCLASYCWLFWTGIA	(++++) ((++++)>3)	+++ (21-30 nM (1) or 60-90 nM (2) (+++))	+++ (21-30 nM (1) or 60-90 nM (2) (+++))	++++ (>30 nM (1) or >90 nM (2) (++++))				Thrombin Above Baseline (nM) [4, 11]: ++++ (>30 nM (1) or >90 nM (2) (++++))
PRIRTVGPGSRSASGKSTCLASYCWLFWTGIA	(++++) ((++++)>3)	+ (1-10 nM (1) or 1-29 nM (2) (+))	+++ (21-30 nM (1) or 60-90 nM (2) (+++))	++++ (>30 nM (1) or >90 nM (2) (++++))	+ (1-10 nM (1) or 1-29 nM (2) (+))	++ (11-20 nM (1) or 30-59 nM (2) (++))	+++ (21-30 nM (1) or 60-90 nM (2) (+++))	Thrombin Above Baseline (nM) [4, 11]: ++++ (>30 nM (1) or >90 nM (2) (++++))
PRIRTVGSGSRSASGKLTCLASYCWLFWTGIA	(++++) ((++++)>3)				+ (1-10 nM (1) or 1-29 nM (2) (+))	+ (1-10 nM (1) or 1-29 nM (2) (+))	+ (1-10 nM (1) or 1-29 nM (2) (+))	
PRIRTVGPSSRSASGKLTCLASYCWLFWTGIA	(++++) ((++++)>3)				+ (1-10 nM (1) or 1-29 nM (2) (+))	++ (11-20 nM (1) or 30-59 nM (2) (++))	++ (11-20 nM (1) or 30-59 nM (2) (++))	
PRIRTVGPGSRSASGKSTCLASYCWLFWTGIA [Compound 22]								induction of platelet aggregation [5]: did also not induce platelet aggregation
PRIrTVGPGSrSASGKLTCLASYCWLFWTGIA [Compound 23]	(++++) ((++++)>3)							Clotting time, sec (avg.) ([6]; 2.5 μM): 983 s; α-angle, degrees (avg.) ([6]; 2.5 μM): 13 degrees; Clotting time, sec (avg.) ([6]; 5 μM): 673 s; α-angle, degrees (avg.) ([6]; 5 μM): 22 degrees; Clotting time, sec (avg.) ([6]; 10 μM): 486 s; α-angle, degrees (avg.) ([6]; 10 μM): 32 degrees; Clotting time, sec (avg.) ([6]; 20 μM): 472 s; α-angle, degrees (avg.) ([6]; 20 μM): 39 degrees
PRIRTVSPGSRSASGKSTCLASYCWLFWTGIA	(++++) ((++++)>3)	++ (11-20 nM (1) or 30-59 nM (2) (++))	+++ (21-30 nM (1) or 60-90 nM (2) (+++))	++++ (>30 nM (1) or >90 nM (2) (++++))				Thrombin Above Baseline (nM) [4, 11]: ++++ (>30 nM (1) or >90 nM (2) (++++))
PRISTVGPGSRSASGKLTCLASYCWLFWTGIA	(++++) ((++++)>3)				+ (1-10 nM (1) or 1-29 nM (2) (+))	+ (1-10 nM (1) or 1-29 nM (2) (+))	+ (1-10 nM (1) or 1-29 nM (2) (+))	
PRIRTVSPGSRSASGKLTCLASYCWLFWTGIA	(++++) ((++++)>3)				++ (11-20 nM (1) or 30-59 nM (2) (++))	+++ (21-30 nM (1) or 60-90 nM (2) (+++))	++++ (>30 nM (1) or >90 nM (2) (++++))	
SRIRTVGPGSRSASGKLTCLASYCWLFWTGIA	(++++) ((++++)>3)				++ (11-20 nM (1) or 30-59 nM (2) (++))	+++ (21-30 nM (1) or 60-90 nM (2) (+++))	++++ (>30 nM (1) or >90 nM (2) (++++))	
PRSRTVGPGSRSASGKLTCLASYCWLFWTGIA	(++++) ((++++)>3)				++ (11-20 nM (1) or 30-59 nM (2) (++))	+++ (21-30 nM (1) or 60-90 nM (2) (+++))	+++ (21-30 nM (1) or 60-90 nM (2) (+++))	
k-MeLeu-TCLASYCWLF								Thrombin Above Baseline (nM) ([4]; HRF FVIII-deficient plasma (1), 2.5 μM): + (1-10 nM (1) or 1-29 nM (2) (+)); Thrombin Above Baseline (nM) ([4]; HRF FVIII-deficient plasma (1), 5 μM): −; Thrombin Above Baseline (nM) ([4]; HRF FVIII-deficient plasma (1), 10 μM): −; Thrombin Above Baseline (nM) ([4]; HRF FVIII-deficient plasma (1), 20 μM): + (1-10 nM (1) or 1-29 nM (2) (+)); Vmax ([2]; FXa generation assay using human FIXa): (++++) ((++++)>3); Vmax ([2]; FXa generation assay, 10 nM hFIXa, 100 nM hFX, listed as SEQ ID NO: 232): (+++) ((+++)>2)
PRIRSVGPGSRSASGKLTCLASYCWLFWTGIA	(++++) ((++++)>3)				++ (11-20 nM (1) or 30-59 nM (2) (++))	+++ (21-30 nM (1) or 60-90 nM (2) (+++))	+++ (21-30 nM (1) or 60-90 nM (2) (+++))	
